Source: patent US5068332A, “Alkylidene analogs of 1'-aminospiro[isoquinoline-4(1H),3'-pyrrolidine]-1,2',3,5'(2H)-tetrones useful as aldose reductase inhibitors” (American Home Products Corporation, priority 1990, dated 1991)

How the values were obtained:
dulcitol accumulation = test: lowering of galactitol (dulcitol) accumulation in tissues of galactosemic rats in vivo; parameters: species or system rat (male, Sprague-Dawley); settings: in diet, 4 days; for % Lowering Galactitol Accumulation In Vivo, % (D): diaphragm; for % Lowering Galactitol Accumulation In Vivo, % (L): lens
Source text: The aldose reductase inhibiting property of the compounds of this invention and the utilization of the compounds in preventing, diminishing and alleviating diabetic complications are demonstrable in experiments using galactosemic rats, see Dvornik et al., Science, 182, 1146 (1973). Such experiments are exemplified hereinbelow after the listing of the following general comments pertaining to these experiments:
(a) Four or more groups of six male rats, 50-70 g, Sprague-Dawley strain, were used. The first group, the control group, was fed a mixture of laboratory chow (rodent Laboratory Chow, Purina) and glucose at 20% (w/w %) concentration. An untreated galactosemic group was fed a similar diet in which galactose was substituted for glucose. The third group was fed a diet prepared by mixing a given amount of the test compound with the galactose containing diet. The concentration of galactose in the diet of the treated groups was the same as that for the untreated galactosemic group.
(b) After four days, the animals were killed by euthanization. Both the lens and sciatic nerve were removed, weighed and stored frozen for polyol determination.
(§1) (c) The polyol determination was performed by a modification of the procedure of M. Kraml and L. Cosyns, Clin. Biochem., 2, 373 (1969). Only two minor reagent changes were made: (a) the rinsing mixture was an aqueous 5% (w/v) trichloroacetic acid solution and (b) the stock solution was prepared by dissolving 25 mg of dulcitol in 100 mL of an aqueous trichloroacetic acid solution. [N.B.: For each experiment the average value found in the tissue from rats fed the glucose diet was substracted from the individual values found in the corresponding tissue in galactose-fed rats to obtain the amount of polyol accumulated.] The aldose reductase inhibiting effects of the compounds of formula (I) were also tested by employing an in vitro testing procedure similar to that described by S. Hayman and J.H. Kinoshita, J. Biol. Chem., 240, 877 (1965). In the present case the procedure of Hayman and Kinoshita was modified in that the final chromatography step was omitted in the preparation of the enxyme from bovine lens.
The figures under L, N, and D represent the percentage decrease of dulcitol accumulation in the tissues of the lens, sciatic nerve, and diaphragm, respectively, for treated rats as compared to untreated rats.

aldose reductase = target: T1, aldose reductase (Bos taurus, UniProt P16116); test: aldose reductase inhibition in vitro (modified Hayman and Kinoshita procedure, enzyme from bovine lens); type: biochemical; settings: 10^-5 M
T1 construct: preparation of the enxyme from bovine lens; from tissue; host or cells: bovine lens
Method: as §1

O=C1c2ccccc2C2(CC(=O)N(N=C3CCCC3)C2=O)C(=O)N1Cc1ccc(Br)cc1F (stereo not shown) [2-[(4-bromo-2-fluorophenyl)methyl]-1'-(cyclopentylideneamino)spiro[isoquinoline-4(1H),3'-pyrrolidine]-1,2',3,5'(2H)-tetrone]
% Lowering Galactitol Accumulation In Vivo, % (D) (dulcitol accumulation; 48 mg/kg/day): 95% | % Lowering Galactitol Accumulation In Vivo, % (L) (dulcitol accumulation; 48 mg/kg/day): 76% | inhibition at 10 µM (aldose reductase): 0%

CCC(CC)=NN1C(=O)CC2(C(=O)N(Cc3ccc(Br)cc3F)C(=O)c3ccccc32)C1=O (stereo not shown) [2-[(4-bromo-2-fluorophenyl)methyl]-1'-[(1-ethylpropylidene)amino]spiro[isoquinoline-4(1H),3'-pyrrolidine]-1,2',3,5'(2H)-tetrone]
% Lowering Galactitol Accumulation In Vivo, % (D) (dulcitol accumulation; 51 mg/kg/day): 93% | % Lowering Galactitol Accumulation In Vivo, % (L) (dulcitol accumulation; 51 mg/kg/day): 71% | inhibition at 10 µM (aldose reductase): 0%

CC(C)=NN1C(=O)CC2(C(=O)N(Cc3ccc(Br)cc3F)C(=O)c3ccccc32)C1=O (stereo not shown) [2-[(4-bromo-2-fluorophenyl)methyl]-1'-[(1-methylethylidene)amino]spiro[isoquinoline-4(1H),3'-pyrrolidine]-1,2',3,5'(2H)-tetrone]
% Lowering Galactitol Accumulation In Vivo, % (D) (dulcitol accumulation; 0.9 mg/kg/day): 66% | % Lowering Galactitol Accumulation In Vivo, % (D) (dulcitol accumulation; 10.8 mg/kg/day): 86% | % Lowering Galactitol Accumulation In Vivo, % (D) (dulcitol accumulation; 56 mg/kg/day): 95% | % Lowering Galactitol Accumulation In Vivo, % (L) (dulcitol accumulation; 10.8 mg/kg/day): 30% | % Lowering Galactitol Accumulation In Vivo, % (L) (dulcitol accumulation; 56 mg/kg/day): 53% | inhibition at 10 µM (aldose reductase): 8%

O=C1c2ccccc2C2(CC(=O)N(N=C3CCOCC3)C2=O)C(=O)N1Cc1ccc(Br)cc1F (stereo not shown) [2-[(4-bromo-2-fluorophenyl)methyl]-1'-[(tetrahydro-4H-pyran-4-ylidene)amino]spiro[isoquinoline-4(1H),3'-pyrrolidine]-1,2',3,5'(2H)-tetrone]
% Lowering Galactitol Accumulation In Vivo, % (D) (dulcitol accumulation; 56 mg/kg/day): 89% | % Lowering Galactitol Accumulation In Vivo, % (L) (dulcitol accumulation; 56 mg/kg/day): 44% | inhibition at 10 µM (aldose reductase): 36%

CC(C)=NN1C(=O)CC2(C(=O)N(Cc3ccc(Br)cc3F)C(=O)c3ccc(F)cc32)C1=O (stereo not shown) [2-[(4-bromo-2-fluorophenyl)methyl]-6-fluoro-1'-[(1-methylethylidene)amino]spiro[isoquinoline-4(1H),3'-pyrrolidine]-1,2',3,5'(2H)-tetrone]
% Lowering Galactitol Accumulation In Vivo, % (D) (dulcitol accumulation; 1.1 mg/kg/day): 85% | % Lowering Galactitol Accumulation In Vivo, % (D) (dulcitol accumulation; 27 mg/kg/day): 97% | % Lowering Galactitol Accumulation In Vivo, % (L) (dulcitol accumulation; 27 mg/kg/day): 58% | inhibition at 10 µM (aldose reductase): 5%
